Assays:
Experiment in all cases: relative viability (nuclei count vs DMSO), 5 days (fraction); higher = more cells survive
[1] = compound: OCc1c[nH]c2ccccc12 [Indole-3-carbinol] + Nc1ncn([C@H]2C[C@H](O)[C@@H](CO)O2)c(=O)n1 [Decitabine] (partner 2 µM)
Method in brief: (§1)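 Lung cancer cell lines in 1536-well plates got either a single drug or a fixed anchor-drug dose together with five library-drug doses (not always all listed) in √10 steps, by pin tool, on the day after seeding. Nuclei were counted after 5 days, and relative viability is the treated-to-vehicle ratio of nuclei counts. Values are medians of duplicate plates.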

[2] = compound: OCc1c[nH]c2ccccc12 [Indole-3-carbinol] + Cc1nc(Nc2ncc(C(=O)Nc3c(C)cccc3Cl)s2)cc(N2CCN(CCO)CC2)n1 [Dasatinib] (partner 0.075 µM)
Method in brief: as §1

[3] = compound: OCc1c[nH]c2ccccc12 [Indole-3-carbinol] + O=C(c1cc(Cc2n[nH]c(=O)c3ccccc23)ccc1F)N1CCN(C(=O)C2CC2)CC1 [Olaparib] (partner 8 µM)
Method in brief: as §1

[4] = compound: OCc1c[nH]c2ccccc12 [Indole-3-carbinol] + CC1(C)CCC(c2ccc(Cl)cc2)=C(CN2CCN(c3ccc(C(=O)NS(=O)(=O)c4ccc(N[C@H](CCN5CCOCC5)CSc5ccccc5)c(S(=O)(=O)C(F)(F)F)c4)cc3)CC2)C1 [Navitoclax] (partner 0.5 µM)
Method in brief: as §1

[5] = compound: OCc1c[nH]c2ccccc12 [Indole-3-carbinol] + COc1cc2c(Oc3ccc(NC(=O)C4(C(=O)Nc5ccc(F)cc5)CC4)cc3F)ccnc2cc1OCCCN1CCOCC1 [Foretinib] (partner 0.25 µM)
Method in brief: as §1

Cell Line | relative viability ([1]; first compound 0.253 µM) | relative viability ([1]; first compound 0.8 µM) | relative viability ([1]; first compound 2.53 µM) | relative viability ([1]; first compound 8 µM) | relative viability ([2]; first compound 0.253 µM) | relative viability ([2]; first compound 0.8 µM) | relative viability ([2]; first compound 2.53 µM) | relative viability ([2]; first compound 8 µM) | relative viability ([3]; first compound 0.253 µM) | relative viability ([3]; first compound 0.8 µM) | relative viability ([3]; first compound 2.53 µM) | relative viability ([3]; first compound 8 µM) | relative viability ([4]; first compound 0.253 µM) | relative viability ([4]; first compound 0.8 µM) | relative viability ([4]; first compound 2.53 µM) | relative viability ([4]; first compound 8 µM) | relative viability ([5]; first compound 0.253 µM) | relative viability ([5]; first compound 0.8 µM) | relative viability ([5]; first compound 2.53 µM) | relative viability ([5]; first compound 8 µM)
NCI-H838 | 0.486 | 0.498 | 0.518 | 0.434 | 0.27 | 0.31 | 0.297 | 0.295 | 0.856 | 0.85 | 0.75 | 0.704 | 1.18 | 1.14 | 1.18 | 1.08 | 0.997 | 0.985 | 1.01 | 1.02
NCI-H3122 | 0.462 | 0.414 | 0.37 | 0.451 | 0.839 | 0.771 | 0.969 | 0.851 | 0.65 | 0.612 | 0.495 | 0.538 | 1.04 | 1.01 | 1.02 | 1.01 | 0.972 | 0.962 | 0.999 | 0.961
SK-MES-1 | 0.341 | 0.415 | 0.413 | 0.348 | 0.472 | 0.343 | 0.387 | 0.417 | 0.758 | 0.888 | 0.632 | 0.615 | 1.28 | 1.3 | 1.18 | 1.18 | 1.03 | 0.922 | 0.946 | 0.882
NCI-H1944 | 0.46 | 0.456 | 0.441 | 0.404 | 0.207 | 0.192 | 0.233 | 0.232 | 0.38 | 0.348 | 0.388 | 0.368 | 1.13 | 1.01 | 1.11 | 1.03 | 0.876 | 0.775 | 0.846 | 0.77
LK-2 | 0.308 | 0.231 | 0.374 | 0.327 | 0.262 | 0.297 | 0.299 | 0.273 | 0.877 | 0.675 | 0.808 | 0.713 | 0.777 | 0.769 | 1.1 | 0.821 | 1.39 | 1.2 | 1.42 | 1.07
PC-3 [JPC-3] | 0.868 | 0.832 | 0.91 | 0.809 | 0.979 | 1.02 | 0.986 | 0.949 | 1.17 | 1.29 | 1.11 | 1.03 | 0.8 | 0.804 | 0.823 | 0.783 | 1.07 | 1.05 | 1.02 | 0.967
COR-L23 | 0.428 | 0.465 | 0.414 | 0.385 | 0.505 | 0.571 | 0.586 | 0.542 | 0.37 | 0.411 | 0.372 | 0.31 | 1.17 | 1.07 | 0.976 | 0.797 | 0.992 | 0.977 | 1.1 | 0.951
NCI-H1355 | 0.342 | 0.359 | 0.379 | 0.371 | 0.677 | 0.886 | 0.672 | 0.737 | 0.782 | 0.77 | 0.772 | 0.699 | 0.967 | 0.919 | 0.858 | 0.896 | 0.961 | 1.01 | 0.998 | 0.978
NCI-H460 | 0.564 | 0.44 | 0.518 | 0.473 | 0.451 | 0.59 | 0.499 | 0.444 | 0.38 | 0.377 | 0.455 | 0.375 | 1.2 | 1.46 | 1.08 | 1 | 1.03 | 1.02 | 1.02 | 0.992
NCI-H1993 | 0.641 | 0.657 | 0.573 | 0.623 | 0.762 | 0.619 | 0.662 | 0.605 | 1.01 | 1.12 | 0.98 | 0.927 | 0.958 | 1.1 | 0.89 | 1.01 | 0.716 | 0.899 | 0.763 | 0.846
ChaGo-K-1 | 0.523 | 0.55 | 0.525 | 0.519 | 0.583 | 0.568 | 0.709 | 0.604 | 0.427 | 0.45 | 0.415 | 0.387 | 0.805 | 0.962 | 0.913 | 0.966 | 0.955 | 0.941 | 0.872 | 0.894
HCC-15 | 0.66 | 0.682 | 0.64 | 0.664 | 0.615 | 0.745 | 0.611 | 0.607 | 0.722 | 0.747 | 0.684 | 0.685 | 0.692 | 0.722 | 0.66 | 0.71 | 1.04 | 1.14 | 1.07 | 1.01
NCI-H23 | 0.335 | 0.314 | 0.316 | 0.291 | 0.793 | 1.01 | 0.936 | 0.675 | 0.316 | 0.353 | 0.3 | 0.276 | 0.853 | 0.843 | 0.856 | 0.762 | 1.03 | 1.01 | 1.04 | 1.02
NCI-H1395 | 0.723 | 0.771 | 0.695 | 0.685 | 0.386 | 0.392 | 0.458 | 0.413 | 0.42 | 0.478 | 0.48 | 0.413 | 1.23 | 1.16 | 1.19 | 1.08 | 0.818 | 1.1 | 0.97 | 0.914
NCI-H1666 | 0.809 | 0.673 | 0.696 | 0.661 | 0.898 | 0.835 | 0.886 | 0.805 | 0.803 | 0.731 | 0.766 | 0.728 | 0.896 | 1.05 | 0.973 | 0.893 | 0.932 | 1 | 1.01 | 0.94
NCI-H2405 | 0.829 | 0.711 | 0.852 | 0.635 | 0.212 | 0.211 | 0.2 | 0.214 | 0.907 | 0.889 | 0.908 | 0.823 | 1.06 | 0.563 | 0.964 | 0.837 | 1.07 | 1.07 | 1.04 | 0.997

Source: the supplement of paper PMC10307832
